The values below come from ChEMBL document CHEMBL3585290, “Synthesis and biological evaluation of novel bivalent -carbolines as potential antitumor agents” (Medchemcomm, 2014).

A short description of data set [1]: Cytotoxicity against human BGC823 cells after 48 hrs by MTT assay. The class given is functional, cell-based. Conditions: BGC-823, 48 h.
In the next data set the test system is SK-OV-3. Description: Cytotoxicity against human SKOV3 cells after 48 hrs by MTT assay. Conditions: SK-OV-3, 48 h. The class given is functional, cell-based.
A further data set relates to KB. Description: Cytotoxicity against human KB cells after 48 hrs by MTT assay. The class given is functional, cell-based.
The subject of a further data set is 769-P. Description: Cytotoxicity against human 769-P cells after 48 hrs by MTT assay. The format is functional, cell-based.
The next data set has as its system A-375. The data set is described as follows: Cytotoxicity against human A375 cells after 48 hrs by MTT assay. The class given is functional, cell-based. Conditions: A-375, 48 h.
For data set [2], the system named is Lewis lung carcinoma cell line. The data set is described as follows: Antitumor activity against mouse LLC cells implanted in mouse assessed as tumor growth inhibition at 76.9 umol/kg, ip qd administered for 7 days starting 24 hrs post tumor implantation measured after day 21 relative to control. The settings on record: read-out: TGI. The class given is functional.

Data set [3] deals with CT26. The data set is described as follows: Antitumor activity against mouse CT26 cells implanted in mouse assessed as tumor growth inhibition at 76.9 umol/kg, ip qd administered for 7 days starting 24 hrs post tumor implantation measured after day 21 relative to control. The class given is functional. The settings on record: read-out: TGI.
Data set [4] is described as follows: Acute toxicity in ip dosed C57BL/6 mouse measured for 14 days. The format is organism-based. The settings on record: in vivo.
Data set [5] concerns Lewis lung carcinoma cell line. The data set is described as follows: Antitumor activity against mouse LLC cells implanted in mouse assessed as tumor growth inhibition at 32.3 umol/kg, ip qd administered for 7 days starting 24 hrs post tumor implantation measured after day 21 relative to control. The class given is functional. Conditions: read-out: TGI.
For data set [6], the system named is CT26. The data set is described as follows: Antitumor activity against mouse CT26 cells implanted in mouse assessed as tumor growth inhibition at 32.3 umol/kg, ip qd administered for 7 days starting 24 hrs post tumor implantation measured after day 21 relative to control. The settings on record: read-out: TGI. The format is functional.

Structures are written as SMILES.

For the compound `COc1cc(-c2nc(C(=O)OCCCCCCOC(=O)c3cc4c5ccccc5n(CCCc5ccccc5)c4c(-c4cc(OC)c(OC)c(OC)c4)n3)cc3c4ccccc4n(CCCc4ccccc4)c23)cc(OC)c1OC`, the IC50 in data set [1] was 168 µM; with SK-OV-3, greater than 200 µM; in the data set on KB, greater than 200 µM; with 769-P, 118 µM; with A-375 it was 134 µM.

For `CCCCn1c2ccccc2c2cc(C(=O)OCCCCCCCCCCOC(=O)c3cc4c5ccccc5n(CCCC)c4c(C)n3)nc(C)c21`, the half-maximal inhibitory concentration (IC50) in [1] was greater than 200 µM; in the data set on SK-OV-3 it was greater than 200 µM; in the data set with KB it was greater than 200 µM; with 769-P, 114 µM; with A-375, 42 µM.

For the compound `CCCCn1c2ccccc2c2cc(C(=O)OCCCCCCCCCOC(=O)c3cc4c5ccccc5n(CCCC)c4cn3)ncc21`, the IC50 in [1] was greater than 200 µM; in the data set on SK-OV-3, greater than 200 µM; with KB, 26.4 µM; in the data set with 769-P it was 115 µM; in the data set on A-375 it was 89.6 µM.

Turning to `CCCCn1c2ccccc2c2cc(C(=O)OCCCCCOC(=O)c3cc4c5ccccc5n(CCCC)c4cn3)ncc21`, the IC50 in data set [1] was greater than 200 µM; in the data set with SK-OV-3, greater than 200 µM; in the data set on KB, 53.9 µM; in the data set on 769-P, 32.9 µM; in the data set on A-375 it was greater than 200 µM.

`O=C(OCCCCCCCOC(=O)c1cc2c3ccccc3n(CCCc3ccccc3)c2cn1)c1cc2c3ccccc3n(CCCc3ccccc3)c2cn1`: the IC50 in data set [1] was greater than 200 µM; in the data set with SK-OV-3, greater than 200 µM; with KB, 78.9 µM; in the data set with 769-P, 43.5 µM; in the data set with A-375 it was 143 µM.

Turning to `CCCCn1c2ccccc2c2cc(C(=O)OCCCCCCCCCCOC(=O)c3cc4c5ccccc5n(CCCC)c4cn3)ncc21`, the IC50 was 168 µM in data set [1]; greater than 200 µM in the data set with SK-OV-3; 45.2 µM in the data set with KB; 89.2 µM in the data set with 769-P; greater than 200 µM in the data set on A-375.

`CCn1c2ccccc2c2cc(C(=O)OCCCCCCOC(=O)c3cc4c5ccccc5n(CC)c4c(-c4ccc(OC)cc4)n3)nc(-c3ccc(OC)cc3)c21`: the IC50 in data set [1] was greater than 200 µM; in the data set on SK-OV-3, greater than 200 µM; in the data set on KB it was 89.2 µM; in the data set with 769-P, 65.9 µM; in the data set on A-375 it was greater than 200 µM.

`O=C(OCCCCOC(=O)c1cc2c3ccccc3n(Cc3ccccc3)c2cn1)c1cc2c3ccccc3n(Cc3ccccc3)c2cn1`: the half-inhibitory concentration (IC50) in [1] was 43.6 µM; with SK-OV-3 it was greater than 200 µM; in the data set with KB it was greater than 200 µM; in the data set with 769-P, 45.4 µM; in the data set with A-375 it was 7.9 µM.

As to `Cc1nc(C(=O)OCCCOC(=O)c2cc3c4ccccc4n(C)c3c(C)n2)cc2c3ccccc3n(C)c12`, the IC50 in [1] stood at 19.5 µM; in the data set with SK-OV-3, 21 µM; in the data set with KB it was 18.4 µM; in the data set with 769-P, 16.3 µM; with A-375 it was 16.6 µM. Besides, the inhibition in vivo at 76.9 µmol/kg in data set [2] came out at 28.1%; with CT26 [3], 23.6%. In [4], this compound gave an LD50 at 336 h of 385 µmol/kg.

Take `CCn1c2ccccc2c2cc(C(=O)OCCCCCCCCCOC(=O)c3cc4c5ccccc5n(CC)c4c(C)n3)nc(C)c21`: the IC50 in [1] is greater than 200 µM; in the data set with SK-OV-3, greater than 200 µM; in the data set with KB, 56.9 µM; in the data set on 769-P, 10.3 µM; in the data set with A-375, greater than 200 µM.

Take `Cc1nc(C(=O)OCCCCCOC(=O)c2cc3c4ccccc4n(Cc4ccccc4)c3c(C)n2)cc2c3ccccc3n(Cc3ccccc3)c12`: the IC50 is greater than 200 µM in [1]; greater than 200 µM in the data set with SK-OV-3; 42.4 µM with KB; 72.4 µM in the data set with 769-P; 125 µM with A-375.

For the compound `Cc1nc(C(=O)OCCCCCCOC(=O)c2cc3c4ccccc4n(CCCc4ccccc4)c3c(C)n2)cc2c3ccccc3n(CCCc3ccccc3)c12`, the IC50 is greater than 200 µM in data set [1]; 73.4 µM in the data set with SK-OV-3; greater than 200 µM in the data set with KB; 21.8 µM in the data set with 769-P; greater than 200 µM with A-375.

For the compound `CCCCn1c2ccccc2c2cc(C(=O)OCCCCCCOC(=O)c3cc4c5ccccc5n(CCCC)c4c(C)n3)nc(C)c21`, the IC50 was greater than 200 µM in data set [1]; greater than 200 µM in the data set on SK-OV-3; 54.6 µM in the data set with KB; 60.5 µM in the data set on 769-P; greater than 200 µM in the data set on A-375.

For `CCCCn1c2ccccc2c2cc(C(=O)OCCCCOC(=O)c3cc4c5ccccc5n(CCCC)c4cn3)ncc21`, the IC50 was 116 µM in data set [1]; 123 µM in the data set on SK-OV-3; 89 µM in the data set on KB; 42.6 µM in the data set on 769-P; greater than 200 µM in the data set with A-375.

Regarding `O=C(OCCCOC(=O)c1cc2c3ccccc3n(CCCc3ccccc3)c2cn1)c1cc2c3ccccc3n(CCCc3ccccc3)c2cn1`, the half-maximal inhibitory concentration (IC50) is greater than 200 µM in data set [1]; greater than 200 µM in the data set with SK-OV-3; 72.4 µM in the data set on KB; 95.6 µM with 769-P; greater than 200 µM with A-375.

Consider `Cc1nc(C(=O)OCCCCCCCCCCOC(=O)c2cc3c4ccccc4n(C)c3c(C)n2)cc2c3ccccc3n(C)c12`, for which the half-inhibitory concentration (IC50) in data set [1] was greater than 200 µM; with SK-OV-3 it was greater than 200 µM; in the data set on KB, 198 µM; in the data set on 769-P, 42.9 µM; with A-375, 125 µM.

In the case of `CCn1c2ccccc2c2cc(C(=O)OCCCCCCCCOC(=O)c3cc4c5ccccc5n(CC)c4c(C)n3)nc(C)c21`, the IC50 is greater than 200 µM in [1]; 86.4 µM in the data set on SK-OV-3; greater than 200 µM in the data set on KB; 21.7 µM in the data set with 769-P; 86.3 µM in the data set on A-375.

With `CCCCn1c2ccccc2c2cc(C(=O)OCCCCCCCCOC(=O)c3cc4c5ccccc5n(CCCC)c4cn3)ncc21`, the concentration for half-maximal inhibition (IC50) amounted to 68.9 µM in data set [1]; 124 µM with SK-OV-3; 19.8 µM with KB; 210 µM in the data set with 769-P; 146 µM in the data set on A-375.

For `O=C(OCCCCCCCCCOC(=O)c1cc2c3ccccc3n(Cc3cccc(Cl)c3)c2cn1)c1cc2c3ccccc3n(Cc3cccc(Cl)c3)c2cn1`, the IC50 in data set [1] was greater than 200 µM; with SK-OV-3, greater than 200 µM; in the data set on KB it was 71.2 µM; in the data set on 769-P, 145 µM; in the data set on A-375 it was greater than 200 µM.

As for `O=C(OCCCCCCCCOC(=O)c1cc2c3ccccc3n(Cc3ccccc3)c2cn1)c1cc2c3ccccc3n(Cc3ccccc3)c2cn1`, the half-inhibitory concentration (IC50) in [1] is greater than 200 µM; in the data set on SK-OV-3, greater than 200 µM; in the data set with KB it was 162 µM; in the data set with 769-P it was 68.6 µM; with A-375, greater than 200 µM.

For `O=C(OCCCCCCOC(=O)c1cc2c3ccccc3n(Cc3cccc(Cl)c3)c2cn1)c1cc2c3ccccc3n(Cc3cccc(Cl)c3)c2cn1`, the half-maximal inhibitory concentration (IC50) in [1] is greater than 200 µM; with SK-OV-3, 19 µM; with KB, 46.9 µM; with 769-P, 21.9 µM; in the data set on A-375, greater than 200 µM.

With `CCCCn1c2ccccc2c2cc(C(=O)OCCCCCCCOC(=O)c3cc4c5ccccc5n(CCCC)c4c(C)n3)nc(C)c21`, the IC50 in data set [1] is greater than 200 µM; in the data set with SK-OV-3 it was 71.5 µM; in the data set on KB it was greater than 200 µM; in the data set on 769-P, 95.9 µM; in the data set with A-375, greater than 200 µM.

Turning to `CCCCn1c2ccccc2c2cc(C(=O)OCCCCCCOC(=O)c3cc4c5ccccc5n(CCCC)c4cn3)ncc21`, the IC50 is 43.2 µM in data set [1]; greater than 200 µM with SK-OV-3; 15.6 µM in the data set on KB; 112 µM with 769-P; 18.2 µM with A-375. Also, the inhibition in vivo at 32.3 µmol/kg came to 64.2% in data set [5] and 33.8% in the data set on CT26 [6]. This compound displayed an LD50 at 336 h in [4] of 162 µmol/kg.

Consider `CCn1c2ccccc2c2cc(C(=O)OCCCCCCOC(=O)c3cc4c5ccccc5n(CC)c4c(-c4cc(OC)c(OC)c(OC)c4)n3)nc(-c3cc(OC)c(OC)c(OC)c3)c21`, for which the IC50 in [1] came out at 159 µM; in the data set with SK-OV-3 it was 47.4 µM; in the data set with KB, 20.7 µM; in the data set on 769-P, 10.9 µM; with A-375, 40.4 µM.

With `CCn1c2ccccc2c2cc(C(=O)OCCCCCCOC(=O)c3cc4c5ccccc5n(CC)c4c(C)n3)nc(C)c21`, the half-inhibitory concentration (IC50) is greater than 200 µM in data set [1]; greater than 200 µM in the data set with SK-OV-3; 16.5 µM in the data set on KB; 43.1 µM in the data set with 769-P; 32.9 µM in the data set with A-375.

As to `Cc1nc(C(=O)OCCCCCCOC(=O)c2cc3c4ccccc4n(C)c3c(C)n2)cc2c3ccccc3n(C)c12`, the IC50 in data set [1] was greater than 200 µM; with SK-OV-3, greater than 200 µM; in the data set on KB, 165 µM; with 769-P, 28.3 µM; with A-375, 82.6 µM.

`Cc1nc(C(=O)OCCCCCCOC(=O)c2cc3c4ccccc4n(Cc4ccccc4)c3c(C)n2)cc2c3ccccc3n(Cc3ccccc3)c12`: the IC50 was greater than 200 µM in data set [1]; greater than 200 µM in the data set on SK-OV-3; 112 µM with KB; 64.7 µM in the data set on 769-P; greater than 200 µM in the data set with A-375.

On to `Cc1nc(C(=O)OCCCCCCCCCOC(=O)c2cc3c4ccccc4n(CCCc4ccccc4)c3c(C)n2)cc2c3ccccc3n(CCCc3ccccc3)c12`, for which the IC50 was greater than 200 µM in data set [1]; greater than 200 µM with SK-OV-3; 50.7 µM with KB; 108 µM in the data set on 769-P; greater than 200 µM with A-375.

As to `O=C(OCCCCCCOC(=O)c1cc2c3ccccc3n(Cc3ccccc3)c2cn1)c1cc2c3ccccc3n(Cc3ccccc3)c2cn1`, the IC50 is 164 µM in data set [1]; 27.8 µM in the data set on SK-OV-3; 15.7 µM with KB; 46.8 µM in the data set on 769-P; greater than 200 µM in the data set with A-375.
